Measurements: patent US7041785B1, “B1-bradykinin receptor antagonists and use thereof” (Université de Sherbrooke, priority 1996, dated 2006)
Non-standard residues stand in square brackets, D forms with d. Residues, ends and D or L forms follow the SMILES beside them. d2Nal = N[C@H](Cc1ccc2ccccc2c1)C(=O)O; Hyp = O=C(O)[C@@H]1C[C@@H](O)CN1; dTic = O=C(O)[C@H]1Cc2ccccc2CN1; Sar = CNCC(=O)O

Key:
B2 receptor [1] = molecular target: T1, B2 receptor (Cavia porcellus, UniProt O70526); experiment: cell-based; details: for G.P.I. pA2: vs BK, Inactive = no detectable antagonistic effect at ≦ 10 μg/ml, F.ag. full agonist, P.ag. partial agonist
T1 sequence (O70526 1-372): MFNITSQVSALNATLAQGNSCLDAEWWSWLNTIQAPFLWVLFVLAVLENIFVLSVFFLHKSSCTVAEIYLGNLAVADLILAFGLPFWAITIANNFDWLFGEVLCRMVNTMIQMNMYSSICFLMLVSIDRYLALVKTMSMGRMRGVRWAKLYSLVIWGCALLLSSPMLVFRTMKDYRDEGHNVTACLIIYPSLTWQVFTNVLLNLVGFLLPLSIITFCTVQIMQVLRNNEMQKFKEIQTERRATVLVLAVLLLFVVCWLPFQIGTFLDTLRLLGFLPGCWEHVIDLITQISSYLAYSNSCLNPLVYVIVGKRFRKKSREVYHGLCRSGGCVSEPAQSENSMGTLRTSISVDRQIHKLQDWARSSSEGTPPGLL
Method in brief: (§1)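 Isolated rabbit jugular vein (captopril 1 μmol/L), guinea pig ileum, endothelium-free rabbit aorta and human umbilical vein, in Krebs at 37 °C, with isometric tension recorded. Agonism was tested at 10 μg/mL.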

B1 receptor = molecular target: T2, B1 receptor (Oryctolagus cuniculus, UniProt P48748); experiment: cell-based; details: for Kb: Rb.A. pA2, apparent affinity as antagonist vs desArg9BK
T2 sequence (P48748 1-352): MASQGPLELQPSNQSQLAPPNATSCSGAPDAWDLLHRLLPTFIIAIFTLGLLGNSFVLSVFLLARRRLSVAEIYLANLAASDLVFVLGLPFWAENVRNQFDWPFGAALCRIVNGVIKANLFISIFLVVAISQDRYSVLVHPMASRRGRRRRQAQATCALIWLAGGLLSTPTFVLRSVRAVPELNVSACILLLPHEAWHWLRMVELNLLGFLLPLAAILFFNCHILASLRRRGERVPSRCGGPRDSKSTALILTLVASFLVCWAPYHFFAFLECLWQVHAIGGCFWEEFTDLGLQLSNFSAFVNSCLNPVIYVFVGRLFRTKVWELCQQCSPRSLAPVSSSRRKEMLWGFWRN
Method in brief: as §1

human B2 receptor = molecular target: T3, human B2 receptor (Homo sapiens, UniProt P30411); experiment: Human umbilical vein bioassay in presence of Lys(Leu8)desArg9BK, B2 receptor; assay type: cell-based; details: vs BK, Lys(Leu8)desArg9BK 1 μmol/L present
T3 construct: Helical strips of HUV were prepared according to Gobeil et al; from tissue; host or cells: human umbilical vein helical strips
T3 sequence (P30411 1-391): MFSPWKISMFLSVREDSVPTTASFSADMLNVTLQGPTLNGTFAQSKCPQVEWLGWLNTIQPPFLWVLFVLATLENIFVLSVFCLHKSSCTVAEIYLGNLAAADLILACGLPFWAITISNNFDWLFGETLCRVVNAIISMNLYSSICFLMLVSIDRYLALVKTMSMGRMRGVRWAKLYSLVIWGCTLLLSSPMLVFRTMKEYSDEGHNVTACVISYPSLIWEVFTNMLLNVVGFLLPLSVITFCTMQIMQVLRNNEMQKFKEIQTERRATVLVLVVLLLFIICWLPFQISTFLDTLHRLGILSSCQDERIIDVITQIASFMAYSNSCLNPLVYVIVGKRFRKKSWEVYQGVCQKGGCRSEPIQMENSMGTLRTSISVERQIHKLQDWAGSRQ
Excerpt: Tissues were taken from New Zealand white rabbits (1.5–2.5 kg) and Dunken Hartley guinea pigs (250–350 g) of either sex, killed by stunning and exsanguination. Umbilical cords were taken from healthy women 22–40 years old after spontaneous delivery at term. The rabbit jugular vein (RbJV), the guinea pig ileum (GPI), two preparations containing B2 receptors, the rabbit aorta (RbA) (B1 receptor) and the human umbilical vein (HUV), a mixed preparation containing both B1 and B2 receptors^10, were used. Helical strips of RbJV treated with 1 μmol/L of captopril to avoid peptide degradation by the angiotensin-converting enzyme (ACE), alias kininase II were prepared according to Gaudreau et al.^11 Helical strips of RbA devoid of endothelium were prepared according to Furchgott and Bhadrakom^12. Longitudinal segments of GPI were prepared with the procedure described by Rang^13. Helical strips of HUV were prepared according to Gobeil et al.^10. The tissues were suspended in 10-ml organ baths containing warm (37EC), oxygenated (95% O2–5% CO2) Krebs solution of the following composition in mmol/L; NaCl: 118.1; KCl: 4.7; CaCl26H2O: 2.5; KH2PO4: 1.2; MgSO47H2O: 1.18; NaHCO3: 25.0 and D-Glucose: 5.5. The RbA and the HUV were stretched with an initial tension of 2 g, whereas the RbJV and the GPI were loaded with 0.5 g. Changes of tension produced by the various agents were measured with Grass isometric transducers (model FT 03C, Grass Instrument Co., Quincy, Mass.). […] Before testing the drugs, the tissues were allowed to equilibrate for 60–120 min during which time the tissues were repeatedly washed and the tension readjusted every 15 min.
At the beginning of each experiment, a submaximal dose of bradykinin (BK) (9 nmol/L), was applied repeatedly on the RbJV, the GPI or the HUV to ensure that tissues responded with stable contractions. […] A similar protocol was used for the HUV.
Repeated applications of a singl and double concentration of BK (on RbJV, GPI and HUV) and of desArg^9BK (RbA and HUV) were made in the absence and in presence of the various peptides to evaluate their apparent affinities as antagonists, in terms of pA2 (-log10 of the molar concentration of antagonist that reduces the effect of a double concentration of agonist to that of a single one)^14. The antagonists were applied 10 min before measuring the myotropic effects of either BK (the B2 receptor agonist) or desArg^9BK (the B1 receptor agonist). […] All kinin antagonists were initially applied to tissues at concentration of 10 μg/mL to measure their potential agonistic activities (α^E) in comparison with BK (in the B2 receptor preparations) or desArg^9BK (in the B1 receptor preparations).

B2 receptor [2] = molecular target: T4, B2 receptor (Oryctolagus cuniculus, UniProt Q28642); experiment: cell-based
T4 sequence (Q28642 1-367): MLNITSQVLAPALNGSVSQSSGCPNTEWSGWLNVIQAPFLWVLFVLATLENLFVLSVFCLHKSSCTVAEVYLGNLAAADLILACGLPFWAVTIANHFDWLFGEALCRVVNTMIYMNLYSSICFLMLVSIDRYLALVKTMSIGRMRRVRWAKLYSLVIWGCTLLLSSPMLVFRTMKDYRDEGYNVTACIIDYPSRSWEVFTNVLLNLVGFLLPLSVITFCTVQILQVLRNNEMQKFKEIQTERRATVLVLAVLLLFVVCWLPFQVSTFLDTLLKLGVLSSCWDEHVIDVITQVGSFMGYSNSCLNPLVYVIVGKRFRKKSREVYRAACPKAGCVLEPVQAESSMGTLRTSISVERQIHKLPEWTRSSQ
Method in brief: as §1

[3] = antagonist applied 10 min before, Inactive = no detectable antagonistic effect at ≦ 10 μg/ml
[4] = residual agonistic activity at 10 μg/mL in comparison with BK

CC(C)C[C@H](NC(=O)[C@H]1Cc2ccccc2CN1C(=O)[C@H](CO)NC(=O)[C@H](Cc1ccccc1)NC(=O)CNC(=O)[C@@H]1CCCN1C(=O)[C@@H]1CCCN1C(=O)[C@@H](N)CCCNC(=N)N)C(=O)O [Compound 8, (D-Tic^7, Leu^8)desArg^9BK] (H-RPPGFS[dTic]L-OH; N-terminus and C-terminus assumed)
G.P.I. pA2 (B2 receptor [1]): Inactive
Kb (B1 receptor; [3]): 1380 nM
Human umbilical vein B2 receptor pA2 (human B2 receptor): Inactive

CNCC(=O)N[C@@H](CCCNC(=N)N)C(=O)N1CCC[C@H]1C(=O)N1CCC[C@H]1C(=O)NCC(=O)N[C@@H](Cc1ccccc1)C(=O)N[C@@H](CO)C(=O)N1Cc2ccccc2C[C@@H]1C(=O)N[C@@H](CC(C)C)C(=O)O [Compound 9, Sar(D-Tic^7, Leu^8)desArg^9BK] (H-[Sar]RPPGFS[dTic]L-OH; N-terminus and C-terminus assumed)
G.P.I. pA2 (B2 receptor [1]): Inactive
Kb (B1 receptor; [3]): 692 nM

CC(C)C[C@H](NC(=O)[C@H]1Cc2ccccc2CN1C(=O)[C@H](CO)NC(=O)[C@H](Cc1ccccc1)NC(=O)CNC(=O)[C@@H]1CCCN1C(=O)[C@@H]1CCCN1C(=O)[C@H](CCCNC(=N)N)NC(=O)[C@H](N)CCCNC(=N)N)C(=O)O [Compound 12, D-Arg(D-Tic^7, Leu^8)desArg^9BK] (H-[dR]RPPGFS[dTic]L-OH; N-terminus and C-terminus assumed)
G.P.I. pA2 (B2 receptor [1]): Inactive
Kb (B1 receptor; [3]): 200 nM
Kb (B2 receptor [2]): 4470 nM

CC[C@H](C)[C@H](NC(=O)[C@H]1Cc2ccccc2CN1C(=O)[C@H](CO)NC(=O)[C@H](Cc1ccccc1)NC(=O)CNC(=O)[C@@H]1CCCN1C(=O)[C@@H]1CCCN1C(=O)[C@H](CCCNC(=N)N)NC(=O)[C@H](N)CCCNC(=N)N)C(=O)O [Compound 13, D-Arg(D-Tic^7, Ile^8)desArg^9BK] (H-[dR]RPPGFS[dTic]I-OH; N-terminus and C-terminus assumed)
G.P.I. pA2 (B2 receptor [1]): Inactive
Kb (B1 receptor; [3]): 107 nM
Rb.A. pA2 (B1 receptor; apparent affinity as antagonist vs desArg9BK, antagonist applied 10 min before, Inactive = no detectable antagonistic effect at ≦ 10 μg/ml): 6.97
Kb (B2 receptor [2]): 4570 nM
Human umbilical vein B2 receptor pA2 (human B2 receptor): Inactive

CC(C)C[C@H](NC(=O)[C@H]1Cc2ccccc2CN1C(=O)[C@H](CO)NC(=O)[C@H](Cc1ccccc1)NC(=O)CNC(=O)[C@@H]1C[C@@H](O)CN1C(=O)[C@@H]1CCCN1C(=O)[C@H](CCCNC(=N)N)NC(=O)[C@H](N)CCCNC(=N)N)C(=O)O [Compound 17, D-Arg(Hyp^3, D-Tic^7, Leu^8)desArg^9BK] (H-[dR]RP[Hyp]GFS[dTic]L-OH; N-terminus and C-terminus assumed)
G.P.I. pA2 (B2 receptor [1]): Inactive
Kb (B1 receptor; [3]): 229 nM
Kb (B2 receptor [2]): > 9120 nM

CC[C@H](C)[C@H](NC(=O)[C@@H](Cc1ccc2ccccc2c1)NC(=O)[C@H](CO)NC(=O)[C@H](Cc1ccccc1)NC(=O)CNC(=O)[C@@H]1CCCN1C(=O)[C@@H]1CCCN1C(=O)[C@H](CCCN=C(N)N)NC(=O)[C@H](CCCCN)NC(C)=O)C(=O)O [Compound 19, AcLys(D-βNal^7, Ile^8)desArg^9BK] (Ac-KRPPGFS[d2Nal]I-OH)
Kb (B1 receptor; [3]): 3.98 nM

CC[C@H](C)[C@H](NC(=O)[C@@H](Cc1ccc2ccccc2c1)NC(=O)[C@H](CO)NC(=O)[C@H](Cc1ccccc1)NC(=O)CNC(=O)[C@@H]1CCCN1C(=O)[C@@H]1CCCN1C(=O)[C@H](CCCNC(=N)N)NC(=O)[C@H](N)CCCNC(=N)N)C(=O)O [Compound 23, D-Arg(D-βNal^7, Ile^8)desArg^9BK] (H-[dR]RPPGFS[d2Nal]I-OH; N-terminus and C-terminus assumed)
Kb (B1 receptor; [3]): 19.1 nM
Kb (B2 receptor [2]): 427 nM

CC[C@H](C)[C@H](NC(=O)[C@@H](Cc1ccc2ccccc2c1)NC(=O)[C@H](CO)NC(=O)[C@H](Cc1ccccc1)NC(=O)CNC(=O)[C@@H]1CCCN1C(=O)[C@@H]1CCCN1C(=O)[C@H](CCCNC(=N)N)NC(=O)[C@H](N)CCCCN)C(=O)O [Compound 25, D-Lys(D-βNal^7, Ile^8)desArg^9BK] (H-[dK]RPPGFS[d2Nal]I-OH; N-terminus and C-terminus assumed)
Kb (B1 receptor; [3]): 19.5 nM
Kb (B2 receptor [2]): 3720 nM

CC[C@H](C)[C@H](NC(=O)[C@@H](Cc1ccc2ccccc2c1)NC(=O)[C@H](CO)NC(=O)[C@H](Cc1ccccc1)NC(=O)CNC(=O)[C@@H]1CCCN1C(=O)[C@@H]1CCCN1C(=O)[C@H](CCCNC(=N)N)NC(=O)CNC)C(=O)O [Compound 26, Sar(D-βNal^7, Ile^8)desArg^9BK] (H-[Sar]RPPGFS[d2Nal]I-OH; N-terminus and C-terminus assumed)
Kb (B1 receptor; [3]): 38 nM
Kb (B2 receptor [2]): 9120 nM
Human umbilical vein B2 receptor pA2 (human B2 receptor): Inactive

CC(=O)N[C@@H](Cc1ccc(O)cc1)C(=O)NCCCCCC(=O)N[C@@H](CCCCN)C(=O)N[C@@H](CCCNC(=N)N)C(=O)N1CCC[C@H]1C(=O)N1CCC[C@H]1C(=O)NCC(=O)N[C@@H](Cc1ccccc1)C(=O)N[C@@H](CO)C(=O)N1CCC[C@H]1C(=O)N[C@@H](CC(C)C)C(=O)O [Compound 27, AcTyrεAhxLys(Leu^8)desArg^9BK]
G.P.I. α^E (B2 receptor [1]; [4]): 0.30
G.P.I. pA2 (B2 receptor [1]): P.ag.
Kb (B1 receptor; [3]): 7.94 nM
Rb.A. α^E (B1 receptor; residual agonistic activity at 10 μg/mL in comparison with desArg9BK): 0
Rb.J.V. α^E (B2 receptor [2]; [4]): 0.03

CNCC(=O)N[C@@H](Cc1ccc(O)cc1)C(=O)NCCCCCC(=O)N[C@@H](CCCCN)C(=O)N[C@@H](CCCNC(=N)N)C(=O)N1CCC[C@H]1C(=O)N1CCC[C@H]1C(=O)NCC(=O)N[C@@H](Cc1ccccc1)C(=O)N[C@@H](CO)C(=O)N1CCC[C@H]1C(=O)N[C@@H](CC(C)C)C(=O)O [Compound 28, SarTyrεAhxLys(Leu^8)desArg^9BK]
G.P.I. pA2 (B2 receptor [1]): Inactive
Kb (B1 receptor; [3]): 6.76 nM
